Data as given in ChEMBL document CHEMBL3217687, “Identification of multifunctional small molecule-based reversible monoamine oxidase inhibitors” (Medchemcomm, 2011).

Experiments:
Homo sapiens = species: Homo sapiens; experiment: Selectivity index, ratio of Ki for human recombinant MAOA to Ki for human recombinant MAOB
[1] = molecular target: T1, Amine oxidase [flavin-containing] A (Homo sapiens, UniProt P21397); experiment: Inhibition of human recombinant MAOA assessed as kynuramine conversion to 4-hydroxyquinoline after 20 mins by fluorescence assay
T1 sequence (P21397 whole entry): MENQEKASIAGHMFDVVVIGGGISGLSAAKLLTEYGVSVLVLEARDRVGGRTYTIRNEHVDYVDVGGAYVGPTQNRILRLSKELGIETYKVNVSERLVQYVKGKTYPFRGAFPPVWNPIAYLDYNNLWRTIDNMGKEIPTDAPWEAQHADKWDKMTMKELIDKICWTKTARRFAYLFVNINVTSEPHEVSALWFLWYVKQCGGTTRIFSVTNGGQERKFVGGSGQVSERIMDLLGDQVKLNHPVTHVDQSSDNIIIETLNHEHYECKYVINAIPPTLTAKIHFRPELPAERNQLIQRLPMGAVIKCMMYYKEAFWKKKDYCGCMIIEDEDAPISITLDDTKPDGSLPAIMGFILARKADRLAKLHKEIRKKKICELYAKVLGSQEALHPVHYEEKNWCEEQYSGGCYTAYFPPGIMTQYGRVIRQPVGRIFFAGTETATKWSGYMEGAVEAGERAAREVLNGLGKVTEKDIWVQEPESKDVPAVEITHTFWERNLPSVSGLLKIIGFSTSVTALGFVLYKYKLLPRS

[2] = molecular target: T2, Amine oxidase [flavin-containing] B (Homo sapiens, UniProt P27338); experiment: Binding affinity to human recombinant MAOB
T2 sequence (P27338 whole entry): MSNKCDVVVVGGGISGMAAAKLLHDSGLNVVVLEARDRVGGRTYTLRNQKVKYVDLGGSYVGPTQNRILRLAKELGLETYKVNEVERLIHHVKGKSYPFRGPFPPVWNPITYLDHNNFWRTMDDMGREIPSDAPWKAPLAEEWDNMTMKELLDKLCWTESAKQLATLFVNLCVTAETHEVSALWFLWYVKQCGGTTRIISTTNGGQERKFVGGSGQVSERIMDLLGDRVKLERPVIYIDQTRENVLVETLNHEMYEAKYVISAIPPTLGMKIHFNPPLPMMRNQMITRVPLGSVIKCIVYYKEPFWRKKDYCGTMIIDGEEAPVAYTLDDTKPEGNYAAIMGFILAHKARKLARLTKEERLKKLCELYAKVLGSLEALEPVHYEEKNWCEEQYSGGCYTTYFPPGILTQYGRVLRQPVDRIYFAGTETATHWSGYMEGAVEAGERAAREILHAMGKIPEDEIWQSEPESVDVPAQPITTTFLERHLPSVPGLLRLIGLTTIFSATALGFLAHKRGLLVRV

[3] = molecular target: T2, Amine oxidase [flavin-containing] B; experiment: Inhibition of human recombinant MAOB assessed as kynuramine conversion to 4-hydroxyquinoline after 20 mins by fluorescence assay
[4] = molecular target: T1, Amine oxidase [flavin-containing] A; experiment: Binding affinity to human recombinant MAOA

Row | SMILES | Ratio Ki (Homo sapiens) | IC50 [1] [µM] | Ki [2] [µM] | IC50 [3] [µM] | Ki [4] [µM]
1 | CN(C)c1ccc(/N=C/c2ccccn2)cc1 | 2.8 | 0.36 | 0.04 | 0.068 | 0.1
2 | c1ccc(NCc2ccccn2)cc1 | 0.06 | 20 | 97 | 182 | 5.7
